Test results taken from patent US11279687B2, “Compounds and compositions for the inhibition of NAMPT” (Valo Health, Inc., priority 2010, dated 2022).
Like-named read-outs stand apart in the source and are kept apart here.

Columns and labels:
NAMPT = NAMPT (Homo sapiens (Human), UniProt P43490); assay: NAMPT biochemical inhibition assay (NMN quantified by mass spectrometry); conditions: NAMPT biochemical inhibition; read-out: Biochem IC50
A2780 cells = assay: In-vitro cell proliferation assay (SRB), A2780 cells; assay type: cell-based; conditions: A2780 cells, 72 hours, SRB, read-out: A2780 IC50;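 also: viable cell number read as SRB absorbance, background from media-only wells subtracted, IC50 interpolated from percent inhibition at two bracketing compound concentrations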

Chain of NAMPT (P43490 whole entry): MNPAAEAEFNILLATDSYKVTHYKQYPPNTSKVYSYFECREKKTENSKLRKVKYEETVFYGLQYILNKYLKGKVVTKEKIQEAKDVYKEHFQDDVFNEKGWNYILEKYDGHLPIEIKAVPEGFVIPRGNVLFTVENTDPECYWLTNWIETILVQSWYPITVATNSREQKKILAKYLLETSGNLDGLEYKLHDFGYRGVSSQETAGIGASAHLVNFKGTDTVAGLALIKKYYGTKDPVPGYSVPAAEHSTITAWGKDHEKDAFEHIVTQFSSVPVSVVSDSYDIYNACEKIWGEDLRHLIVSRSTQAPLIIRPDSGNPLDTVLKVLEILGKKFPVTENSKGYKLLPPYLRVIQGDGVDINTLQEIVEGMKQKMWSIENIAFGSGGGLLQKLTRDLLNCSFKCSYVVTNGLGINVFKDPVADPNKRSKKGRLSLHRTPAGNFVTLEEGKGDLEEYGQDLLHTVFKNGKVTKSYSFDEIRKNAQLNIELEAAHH

Compound	IC50 (NAMPT) [µM]	IC50 (A2780 cells; Homo sapiens, A2780, 72 h) [µM]	IC50 (A2780 cells) [µM]
O=C(NCc1cccnc1)Nc1ccc(S(=O)(=O)c2ccc(F)c(C(F)(F)F)c2)cc1 [3-(4-{[4-fluoro-3-(trifluoromethyl)benzene]sulfonyl[phenyl)-1-(pyridin-3-ylmethyl)urea]	0.0015	–	0.0862
O=C(NCc1cccnc1)Nc1ccc(S(=O)(=O)c2cncnc2)cc1 [3-(pyridin-3-ylmethyl)-1-[4-(pyrimidine-5-sulfonyl)phenyl]urea]	0.02	0.871	–
Cc1ccc(S(=O)(=O)c2ccc(NC(=O)NCc3cccnc3)cc2)cc1 [3-{4-[(4-methylbenzene)sulfonyl]phenyl}-1-(pyridin-3-ylmethyl)urea]	0.00433	0.141	–
COc1ccccc1N1CCN(S(=O)(=O)c2ccc(NC(=O)NCc3cccnc3)cc2)CC1 [3-{4-[4-(2-methoxyphenyl)piperazine-1-sulfonyl]phenyl}-1-(pyridin-3-ylmethyl)urea]	0.007	0.035	–
CC(NC(=O)Nc1ccc(S(=O)(=O)N2CCCCC2)cc1)c1cccnc1 (stereo not shown) [3-[4-(piperidine-1-sulfonyl)phenyl]-1-[1-(pyridin-3-yl)ethyl]urea]	22.1	> 30	–
O=C(NCc1cccnc1)Nc1ccc(S(=O)(=O)N2CCC3(CCOC3)CC2)cc1 [1-(4-{2-oxa-8-azaspiro[4.5]decane-8-sulfonyl}phenyl)-3-(pyridin-3-ylmethyl)urea]	0.005	0.089	–
O=C(NCc1cccnc1)Nc1ccc(S(=O)(=O)N2CCCC3CCCCC32)cc1 (stereo not shown) [1-[4-(decahydroquinoline-1-sulfonyl)phenyl]-3-(pyridin-3-ylmethyl)urea]	0.011	0.014	–
O=C(NCc1cccnc1)Nc1ccc(S(=O)(=O)N2CCN(C(=O)Cc3ccccc3)CC2)cc1 [1-{4-[4-(2-phenylacetyl)piperazine-1-sulfonyl]phenyl}-3-(pyridin-3-ylmethyl)urea]	0.003	0.932	–
O=C(NCc1cccnc1)Nc1ccc(S(=O)(=O)c2ccc(Cl)c(C(F)(F)F)c2)cc1 [3-(4-{[4-chloro-3-(trifluoromethyl)benzene]sulfonyl}phenyl)-1-(pyridin-3-ylmethyl)urea]	0.005	0.167	–
CC(=O)c1ccccc1S(=O)(=O)c1ccc(NC(=O)NCc2cccnc2)cc1 [3-{4-[(2-acetylbenzene)sulfonyl]phenyl}-1-(pyridin-3-ylmethyl)urea]	0.002	0.326	–
O=C(NCc1cccnc1)Nc1ccc(S(=O)(=O)c2ccc(C(=O)N3CCCC3)cc2)cc1 [3-(pyridin-3-ylmethyl)-1-[4-({4-[(pyrrolidin-1-yl)carbonyl]benzene}sulfonyl)phenyl]urea]	0.0013	0.0076	–

Further lines, with some results ahead:

IC50 (NAMPT) [µM]	IC50 (A2780 cells; Homo sapiens, A2780, 72 h) [µM]	Compound	IC50 (A2780 cells) [µM]
0.012	> 1	Cc1ccc(F)c(S(=O)(=O)c2ccc(NC(=O)NCc3cccnc3)cc2)c1 [3-{4-[(2-fluoro-5-methylbenzene)sulfonyl]phenyl}-1-(pyridin-3-ylmethyl)urea]	–
0.002	0.002	COc1ccc(C)cc1NS(=O)(=O)c1ccc(NC(=O)NCc2cccnc2)cc1 [3-{4-[(2-methoxy-5-methylphenyl)sulfamoyl]phenyl}-1-(pyridin-3-ylmethyl)urea]	–
0.005	0.021	COc1ccc(Cl)cc1S(=O)(=O)c1ccc(NC(=O)NCc2cccnc2)cc1 [3-{4-[(5-chloro-2-methoxybenzene)sulfonyl]phenyl}-1-(pyridin-3-ylmethyl)urea]	–
0.0049	0.1 to 1	Cc1ccc(S(=O)(=O)c2ccc(NC(=O)NCc3cccnc3)cc2)cn1 [3-[4-(6-methylpyridine-3-sulfonyl)phenyl]-1-(pyridin-3-ylmethyl)urea]	–
0.0013	0.0929	COc1ccc(S(=O)(=O)c2ccc(NC(=O)NCc3cccnc3)cc2)cc1Cl [3-{4-[(3-chloro-4-methoxybenzene)sulfonyl]phenyl}-1-(pyridin-3-ylmethyl)urea]	–
0.002	0.01	COc1cccc(F)c1S(=O)(=O)c1ccc(NC(=O)NCc2cccnc2)cc1 [3-{4-[(2-fluoro-6-methoxybenzene)sulfonyl]phenyl}-1-(pyridin-3-ylmethyl)urea]	–
